Measured values as given in PubChem BioAssay AID248 (DTP/NCI, 2004).
“And” between values parts separate entries of the source, which are not always exact repeats. Identical values can stand only once. Inconclusive results and toxic doses are left out. Rule as the data show it: active = T/C of 150% or more; inactive = T/C below 125%.

System: L1210 leukemia ip in BDF1 mice, survival T/C
Experiment: NCI In Vivo Anticancer Drug Screen. Data for tumor model L1210 Leukemia (intraperitoneal) in B6D2F1 (BDF1) mice
Conditions: endpoint: mean survival time, higher = longer survival
Summary of the method: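 Antitumor effect is assessed in tumor-bearing animals. Survival in the compound arm is compared with a vehicle-dosed control arm and expressed as their quotient.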

[1] = dose: 200.0 mg/kg/injection, schedule: Q01DX001 (ip), vehicle: saline
[2] = dose: 100.0 mg/kg/injection, schedule: Q01DX009 (ip), vehicle: saline with Tween-80
[3] = dose: 100.0 mg/kg/injection, schedule: Q04DX003 (ip), vehicle: saline with Tween-80
[4] = dose: 200.0 mg/kg/injection, schedule: Q04DX003 (ip), vehicle: saline with Tween-80
[5] = dose: 400.0 mg/kg/injection, schedule: Q04DX003 (ip), vehicle: saline with Tween-80
[6] = dose: 50.0 mg/kg/injection, schedule: Q01DX009 (ip), vehicle: saline with Tween-80
[7] = dose: 200.0 mg/kg/injection, schedule: Q01DX001 (ip), vehicle: carboxymethylcellulose (CMC)
[8] = dose: 100.0 mg/kg/injection, schedule: Q01DX001 (ip), vehicle: carboxymethylcellulose (CMC)
[9] = dose: 100.0 mg/kg/injection, schedule: Q04DX003 (ip), vehicle: saline
[10] = dose: 200.0 mg/kg/injection, schedule: Q04DX003 (ip), vehicle: saline
[11] = dose: 400.0 mg/kg/injection, schedule: Q04DX003 (ip), vehicle: saline
[12] = dose: 100.0 mg/kg/injection, schedule: Q01DX009 (ip), vehicle: saline
[13] = dose: 200.0 mg/kg/injection, schedule: Q01DX009 (ip), vehicle: saline

Measured: T/C

CCN(CC)CCCC(C)Nc1ccccn1 (centres undefined)
inactive: dose: 75.0 mg/kg/injection, schedule: Q01DX001 (ip), vehicle: carboxymethylcellulose (CMC) 102 % of control | dose: 150.0 mg/kg/injection, schedule: Q01DX001 (ip), vehicle: carboxymethylcellulose (CMC) 100 % of control

Ic1ccc(-n2cccc2)cc1
inactive: dose: 100.0 mg/kg/injection, schedule: Q01DX001 (ip), vehicle: steriod suspending solution 95 % of control | dose: 200.0 mg/kg/injection, schedule: Q01DX001 (ip), vehicle: steriod suspending solution 101 % of control | dose: 400.0 mg/kg/injection, schedule: Q01DX001 (ip), vehicle: steriod suspending solution 92 % of control

Cc1cc(NC(=O)Nc2ccc(Cl)cc2)no1
inactive: dose: 100.0 mg/kg/injection, schedule: Q04DX003 (ip), vehicle: saline sonified 95 % of control | dose: 200.0 mg/kg/injection, schedule: Q04DX003 (ip), vehicle: saline sonified 87 % of control | dose: 400.0 mg/kg/injection, schedule: Q04DX003 (ip), vehicle: saline sonified 87 % of control

O=c1c(CO)c[nH]cc1CO
inactive: dose: 100.0 mg/kg/injection, schedule: Q01DX001 (ip), vehicle: saline 101 % of control | [1] 103 % of control | dose: 400.0 mg/kg/injection, schedule: Q01DX001 (ip), vehicle: saline 107 % of control

NCCc1cc2c3c(c1)CCCN3CCC2
inactive: dose: 0.78 mg/kg/injection, schedule: Q01DX009 (ip), vehicle: saline 95 % of control | dose: 1.56 mg/kg/injection, schedule: Q01DX009 (ip), vehicle: saline 102 % of control | dose: 3.12 mg/kg/injection, schedule: Q01DX009 (ip), vehicle: saline 91 % of control | dose: 6.25 mg/kg/injection, schedule: Q01DX009 (ip), vehicle: saline 97 % of control | dose: 12.5 mg/kg/injection, schedule: Q01DX001 (ip), vehicle: saline 100 % of control | dose: 25.0 mg/kg/injection, schedule: Q01DX001 (ip), vehicle: saline 94 % of control

O=C(O)C1CCCCC1/C=N/Nc1ccc([N+](=O)[O-])cc1[N+](=O)[O-] (centres undefined)
inactive: dose: 50.0 mg/kg/injection, schedule: Q01DX001 (ip), vehicle: saline 93 % of control | [1] 89 % of control

O=c1cc(Cc2ccccc2)[nH]c(=S)[nH]1
inactive: [2] 94 % of control | [3] 99 % of control | dose: 200.0 mg/kg/injection, schedule: Q01DX009 (ip), vehicle: saline with Tween-80 93 % of control | [4] 97 % of control | dose: 400.0 mg/kg/injection, schedule: Q01DX009 (ip), vehicle: saline with Tween-80 96 % of control | [5] 100 % of control

CCCC(=O)Nc1cc([N+](=O)[O-])ccc1O
inactive: [6] 97 % of control and 106 % of control | dose: 100.0 mg/kg/injection, schedule: Q04DX002 (ip), vehicle: saline with Tween-80 93 % of control and 95 % of control | dose: 200.0 mg/kg/injection, schedule: Q04DX002 (ip), vehicle: saline with Tween-80 95 % of control and 97 % of control | dose: 400.0 mg/kg/injection, schedule: Q04DX002 (ip), vehicle: saline with Tween-80 95 % of control and 92 % of control

Cc1cc(CC(C)C)c(C(N)=O)cc1C
inactive: dose: 100.0 mg/kg/injection, schedule: Q01DX001 (ip), vehicle: other 108 % of control | dose: 200.0 mg/kg/injection, schedule: Q01DX001 (ip), vehicle: other 105 % of control | dose: 400.0 mg/kg/injection, schedule: Q01DX001 (ip), vehicle: other 103 % of control

O=C(CCn1cccc1)c1csc2ccccc12
inactive: dose: 10.0 mg/kg/injection, schedule: Q01DX001 (ip), vehicle: carboxymethylcellulose (CMC) 97 % of control | dose: 20.0 mg/kg/injection, schedule: Q01DX001 (ip), vehicle: carboxymethylcellulose (CMC) 98 % of control | dose: 40.0 mg/kg/injection, schedule: Q01DX001 (ip), vehicle: carboxymethylcellulose (CMC) 100 % of control | dose: 80.0 mg/kg/injection, schedule: Q01DX001 (ip), vehicle: carboxymethylcellulose (CMC) 100 % of control | [7] 88 % of control

CC12C=CC3(CCC4C(C)(C)C(O[N+](=O)[O-])C(=O)CC4(C)C3CC1=O)C2 (centres undefined)
inactive: dose: 75.0 mg/kg/injection, schedule: Q01DX009 (ip), vehicle: Klucel (hydroxypropylcellulose) (HPC) 108 % of control | dose: 100.0 mg/kg/injection, schedule: Q01DX001 (ip), vehicle: Klucel (hydroxypropylcellulose) (HPC) 92 % of control | dose: 150.0 mg/kg/injection, schedule: Q01DX009 (ip), vehicle: Klucel (hydroxypropylcellulose) (HPC) 100 % of control | dose: 200.0 mg/kg/injection, schedule: Q01DX001 (ip), vehicle: Klucel (hydroxypropylcellulose) (HPC) 95 % of control | dose: 300.0 mg/kg/injection, schedule: Q01DX009 (ip), vehicle: Klucel (hydroxypropylcellulose) (HPC) 98 % of control | dose: 400.0 mg/kg/injection, schedule: Q01DX001 (ip), vehicle: Klucel (hydroxypropylcellulose) (HPC) 88 % of control

Cc1ccc(C2=CCCCC2)cc1
inactive: dose: 50.0 mg/kg/injection, schedule: Q01DX001 (ip), vehicle: carboxymethylcellulose (CMC) 96 % of control | [8] 96 % of control | dose: 400.0 mg/kg/injection, schedule: Q01DX001 (ip), vehicle: carboxymethylcellulose (CMC) 94 % of control

ClCCCNCc1ccc(-c2c3ccccc3cc3c2ccc2ccccc23)cc1
inactive: [8] 95 % of control | [7] 101 % of control

[O-][n+]1ccnc2ccccc21
inactive: [9] 100 % of control | [10] 108 % of control | [11] 110 % of control

CCC(CO)Nc1nc2ccccc2c2ccccc12 (centres undefined)
inactive: dose: 100.0 mg/kg/injection, schedule: Q01DX009 (ip), vehicle: Klucel (hydroxypropylcellulose) (HPC) 102 % of control | dose: 100.0 mg/kg/injection, schedule: Q04DX003 (ip), vehicle: Klucel (hydroxypropylcellulose) (HPC) 98 % of control | dose: 200.0 mg/kg/injection, schedule: Q01DX009 (ip), vehicle: Klucel (hydroxypropylcellulose) (HPC) 97 % of control | dose: 200.0 mg/kg/injection, schedule: Q04DX003 (ip), vehicle: Klucel (hydroxypropylcellulose) (HPC) 89 % of control | dose: 400.0 mg/kg/injection, schedule: Q04DX003 (ip), vehicle: Klucel (hydroxypropylcellulose) (HPC) 88 % of control

N/N=C(\N)NN
inactive: dose: 15.0 mg/kg/injection, schedule: Q01DX Z (ip), vehicle: methylcellulose (MC) 102 % of control | dose: 30.0 mg/kg/injection, schedule: Q01DX Z (ip), vehicle: methylcellulose (MC) 100 % of control | dose: 60.0 mg/kg/injection, schedule: Q01DX Z (ip), vehicle: methylcellulose (MC) 102 % of control | dose: 120.0 mg/kg/injection, schedule: Q01DX Z (ip), vehicle: methylcellulose (MC) 105 % of control | dose: 240.0 mg/kg/injection, schedule: Q01DX Z (ip), vehicle: methylcellulose (MC) 114 % of control | dose: 240.0 mg/kg/injection, schedule: Q01DX Z (oral), vehicle: methylcellulose (MC) 95 % of control | dose: 420.0 mg/kg/injection, schedule: Q01DX Z (oral), vehicle: methylcellulose (MC) 100 % of control | dose: 480.0 mg/kg/injection, schedule: Q01DX Z (ip), vehicle: methylcellulose (MC) 103 % of control | dose: 600.0 mg/kg/injection, schedule: Q01DX Z (oral), vehicle: methylcellulose (MC) 105 % of control | dose: 720.0 mg/kg/injection, schedule: Q01DX Z (ip), vehicle: methylcellulose (MC) 119 % of control

O=C(Nc1ccccc1)Oc1ccc(Cl)cc1Cl
inactive: dose: 100.0 mg/kg/injection, schedule: Q04DX002 (ip), vehicle: Klucel (hydroxypropylcellulose) (HPC) 104 % of control | dose: 200.0 mg/kg/injection, schedule: Q04DX002 (ip), vehicle: Klucel (hydroxypropylcellulose) (HPC) 110 % of control | dose: 400.0 mg/kg/injection, schedule: Q04DX002 (ip), vehicle: Klucel (hydroxypropylcellulose) (HPC) 96 % of control

O=C(CCl)Oc1cccc([N+](=O)[O-])c1
inactive: dose: 25.0 mg/kg/injection, schedule: Q01DX009 (ip), vehicle: saline with Tween-80 92 % of control | [6] 112 % of control | [2] 107 % of control | [3] 91 % of control | [4] 96 % of control | [5] 94 % of control

CC1C(=O)OC2CC[N+]3(C(C)C)CC=C(COC(=O)C(C)(O)C1(C)O)C23 (centres undefined)
inactive: dose: 50.0 mg/kg/injection, schedule: Q01DX009 (ip), vehicle: saline 100 % of control | [12] 106 % of control | [13] 106 % of control

COC(=O)c1cc2ccncc2c2sc3ccccc3c12
inactive: [12] 97 % of control | [9] 90 % of control | [13] 93 % of control | [10] 92 % of control | dose: 400.0 mg/kg/injection, schedule: Q01DX009 (ip), vehicle: saline 95 % of control | [11] 90 % of control
